The record followed here is the supplement of paper PMC10307832.

SMILES strings stand for the structures.

In the first assay the test system is NCI-H1793. As to the kind of experiment: relative viability (nuclei count vs DMSO), 5 days (fraction); higher = more cells survive. The conditions noted are these: first compound 0.6325 µM. A digest of the protocol: (§1)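 Dosing by pin tool came one day after lung cancer cell lines were seeded in 1536-well plates, using either one drug or a fixed anchor-drug dose plus five library-drug doses (not always all listed) in √10 steps. After 5 days, nuclei were counted on 4× images. Relative viability is treated-well nuclei count divided by vehicle-well nuclei count, and values are medians of duplicate plates.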
`COCC1(CO)C(=O)C2CCN1CC2` (stereo not drawn) [PRIMA-1MET] + Cc1nc(Nc2ncc(C(=O)Nc3c(C)cccc3Cl)s2)cc(N2CCN(CCO)CC2)n1 [Dasatinib] (partner 0.075 µM) showed a relative viability of 0.365.

The assay is the same for the next values; noted with them: first compound 6.325 µM.
`COCC1(CO)C(=O)C2CCN1CC2` (stereo not drawn) [PRIMA-1MET] + CCNC(=O)c1noc(-c2cc(C(C)C)c(O)cc2O)c1-c1ccc(CN2CCOCC2)cc1 [Luminespib] (partner 0.01 µM) registered a relative viability of 0.195.

`COCC1(CO)C(=O)C2CCN1CC2` (stereo not drawn) [PRIMA-1MET] + COc1cccc2cc(-c3nc([C@H]4CC[C@H](C(=O)O)CC4)n4ncnc(N)c34)[nH]c12 [OSI-027] (partner 0.5 µM) showed a relative viability of 0.298.

On to `COCC1(CO)C(=O)C2CCN1CC2` (stereo not drawn) [PRIMA-1MET] + N=C(N)NC(=N)NCCc1ccccc1 [Phenformin] (partner 250 µM), for which the relative viability came out at 0.444.

In turn, `COCC1(CO)C(=O)C2CCN1CC2` (stereo not drawn) [PRIMA-1MET] + Nc1nc2[nH]cc(CCc3ccc(C(=O)N[C@@H](CCC(=O)O)C(=O)O)cc3)c2c(=O)[nH]1 [Pemetrexed] (partner 0.2 µM) displayed a relative viability of 1.09.

`COCC1(CO)C(=O)C2CCN1CC2` (stereo not drawn) [PRIMA-1MET] + Cc1nc(Nc2ncc(C(=O)Nc3c(C)cccc3Cl)s2)cc(N2CCN(CCO)CC2)n1 [Dasatinib] (partner 0.075 µM) had a relative viability of 0.404.

The assay is the same for the next values; noted with them: first compound 20 µM.
In turn, `COCC1(CO)C(=O)C2CCN1CC2` (stereo not drawn) [PRIMA-1MET] + CCNC(=O)c1noc(-c2cc(C(C)C)c(O)cc2O)c1-c1ccc(CN2CCOCC2)cc1 [Luminespib] (partner 0.01 µM) showed a relative viability of 0.159.

In turn, `COCC1(CO)C(=O)C2CCN1CC2` (stereo not drawn) [PRIMA-1MET] + COc1cccc2cc(-c3nc([C@H]4CC[C@H](C(=O)O)CC4)n4ncnc(N)c34)[nH]c12 [OSI-027] (partner 0.5 µM) returned a relative viability of 0.276.

As to `COCC1(CO)C(=O)C2CCN1CC2` (stereo not drawn) [PRIMA-1MET] + N=C(N)NC(=N)NCCc1ccccc1 [Phenformin] (partner 250 µM), the relative viability is 0.326.

With `COCC1(CO)C(=O)C2CCN1CC2` (stereo not drawn) [PRIMA-1MET] + Nc1nc2[nH]cc(CCc3ccc(C(=O)N[C@@H](CCC(=O)O)C(=O)O)cc3)c2c(=O)[nH]1 [Pemetrexed] (partner 0.2 µM), the relative viability turned out to be 0.919.

The compound `COCC1(CO)C(=O)C2CCN1CC2` (stereo not drawn) [PRIMA-1MET] + Cc1nc(Nc2ncc(C(=O)Nc3c(C)cccc3Cl)s2)cc(N2CCN(CCO)CC2)n1 [Dasatinib] (partner 0.075 µM) returned a relative viability of 0.35.

Another assay relates to NCI-H2347. Described as above. The note with it: first compound 0.2 µM. Put shortly: as §1
`COCC1(CO)C(=O)C2CCN1CC2` (stereo not drawn) [PRIMA-1MET] + CCNC(=O)c1noc(-c2cc(C(C)C)c(O)cc2O)c1-c1ccc(CN2CCOCC2)cc1 [Luminespib] (partner 0.01 µM) had a relative viability of 0.262.

As to `COCC1(CO)C(=O)C2CCN1CC2` (stereo not drawn) [PRIMA-1MET] + COc1cccc2cc(-c3nc([C@H]4CC[C@H](C(=O)O)CC4)n4ncnc(N)c34)[nH]c12 [OSI-027] (partner 0.5 µM), the relative viability is 0.428.

`COCC1(CO)C(=O)C2CCN1CC2` (stereo not drawn) [PRIMA-1MET] + N=C(N)NC(=N)NCCc1ccccc1 [Phenformin] (partner 250 µM) showed a relative viability of 0.265.

`COCC1(CO)C(=O)C2CCN1CC2` (stereo not drawn) [PRIMA-1MET] + Nc1nc2[nH]cc(CCc3ccc(C(=O)N[C@@H](CCC(=O)O)C(=O)O)cc3)c2c(=O)[nH]1 [Pemetrexed] (partner 0.2 µM) displayed a relative viability of 0.441.

In the case of `COCC1(CO)C(=O)C2CCN1CC2` (stereo not drawn) [PRIMA-1MET] + Cc1nc(Nc2ncc(C(=O)Nc3c(C)cccc3Cl)s2)cc(N2CCN(CCO)CC2)n1 [Dasatinib] (partner 0.075 µM), the relative viability turned out to be 0.766.

The assay is the same for the next values; noted with them: first compound 0.6325 µM.
Regarding `COCC1(CO)C(=O)C2CCN1CC2` (stereo not drawn) [PRIMA-1MET] + CCNC(=O)c1noc(-c2cc(C(C)C)c(O)cc2O)c1-c1ccc(CN2CCOCC2)cc1 [Luminespib] (partner 0.01 µM), the relative viability was determined as 0.403.

Consider `COCC1(CO)C(=O)C2CCN1CC2` (stereo not drawn) [PRIMA-1MET] + COc1cccc2cc(-c3nc([C@H]4CC[C@H](C(=O)O)CC4)n4ncnc(N)c34)[nH]c12 [OSI-027] (partner 0.5 µM), for which the relative viability was 0.496.

As to `COCC1(CO)C(=O)C2CCN1CC2` (stereo not drawn) [PRIMA-1MET] + N=C(N)NC(=N)NCCc1ccccc1 [Phenformin] (partner 250 µM), the relative viability stood at 0.366.

In the case of `COCC1(CO)C(=O)C2CCN1CC2` (stereo not drawn) [PRIMA-1MET] + Nc1nc2[nH]cc(CCc3ccc(C(=O)N[C@@H](CCC(=O)O)C(=O)O)cc3)c2c(=O)[nH]1 [Pemetrexed] (partner 0.2 µM), the relative viability amounted to 0.455.

Regarding `COCC1(CO)C(=O)C2CCN1CC2` (stereo not drawn) [PRIMA-1MET] + Cc1nc(Nc2ncc(C(=O)Nc3c(C)cccc3Cl)s2)cc(N2CCN(CCO)CC2)n1 [Dasatinib] (partner 0.075 µM), the relative viability is 0.257.

The same assay, now with this note: first compound 2 µM.
`COCC1(CO)C(=O)C2CCN1CC2` (stereo not drawn) [PRIMA-1MET] + CCNC(=O)c1noc(-c2cc(C(C)C)c(O)cc2O)c1-c1ccc(CN2CCOCC2)cc1 [Luminespib] (partner 0.01 µM) yielded a relative viability of 0.174.

For `COCC1(CO)C(=O)C2CCN1CC2` (stereo not drawn) [PRIMA-1MET] + COc1cccc2cc(-c3nc([C@H]4CC[C@H](C(=O)O)CC4)n4ncnc(N)c34)[nH]c12 [OSI-027] (partner 0.5 µM), the relative viability is 0.247.

`COCC1(CO)C(=O)C2CCN1CC2` (stereo not drawn) [PRIMA-1MET] + N=C(N)NC(=N)NCCc1ccccc1 [Phenformin] (partner 250 µM): the relative viability is 0.231.

With `COCC1(CO)C(=O)C2CCN1CC2` (stereo not drawn) [PRIMA-1MET] + Nc1nc2[nH]cc(CCc3ccc(C(=O)N[C@@H](CCC(=O)O)C(=O)O)cc3)c2c(=O)[nH]1 [Pemetrexed] (partner 0.2 µM), the relative viability was 0.335.

`COCC1(CO)C(=O)C2CCN1CC2` (stereo not drawn) [PRIMA-1MET] + Cc1nc(Nc2ncc(C(=O)Nc3c(C)cccc3Cl)s2)cc(N2CCN(CCO)CC2)n1 [Dasatinib] (partner 0.075 µM) displayed a relative viability of 0.291.

Staying with this assay, now noted: first compound 6.325 µM.
In turn, `COCC1(CO)C(=O)C2CCN1CC2` (stereo not drawn) [PRIMA-1MET] + CCNC(=O)c1noc(-c2cc(C(C)C)c(O)cc2O)c1-c1ccc(CN2CCOCC2)cc1 [Luminespib] (partner 0.01 µM) showed a relative viability of 0.386.

`COCC1(CO)C(=O)C2CCN1CC2` (stereo not drawn) [PRIMA-1MET] + COc1cccc2cc(-c3nc([C@H]4CC[C@H](C(=O)O)CC4)n4ncnc(N)c34)[nH]c12 [OSI-027] (partner 0.5 µM): the relative viability was 0.336.

As to `COCC1(CO)C(=O)C2CCN1CC2` (stereo not drawn) [PRIMA-1MET] + N=C(N)NC(=N)NCCc1ccccc1 [Phenformin] (partner 250 µM), the relative viability stood at 0.28.

The compound `COCC1(CO)C(=O)C2CCN1CC2` (stereo not drawn) [PRIMA-1MET] + Nc1nc2[nH]cc(CCc3ccc(C(=O)N[C@@H](CCC(=O)O)C(=O)O)cc3)c2c(=O)[nH]1 [Pemetrexed] (partner 0.2 µM) displayed a relative viability of 0.407.

On to `COCC1(CO)C(=O)C2CCN1CC2` (stereo not drawn) [PRIMA-1MET] + Cc1nc(Nc2ncc(C(=O)Nc3c(C)cccc3Cl)s2)cc(N2CCN(CCO)CC2)n1 [Dasatinib] (partner 0.075 µM), for which the relative viability is 0.3.

Staying with this assay, now noted: first compound 20 µM.
Take `COCC1(CO)C(=O)C2CCN1CC2` (stereo not drawn) [PRIMA-1MET] + CCNC(=O)c1noc(-c2cc(C(C)C)c(O)cc2O)c1-c1ccc(CN2CCOCC2)cc1 [Luminespib] (partner 0.01 µM): the relative viability worked out at 0.349.

Regarding `COCC1(CO)C(=O)C2CCN1CC2` (stereo not drawn) [PRIMA-1MET] + COc1cccc2cc(-c3nc([C@H]4CC[C@H](C(=O)O)CC4)n4ncnc(N)c34)[nH]c12 [OSI-027] (partner 0.5 µM), the relative viability came to 0.311.
